Measured values from patent US12559474B2, “Triazine derivatives having virus replication inhibitory activity and pharmaceutical composition comprising the same” (priority 2021, dated 2026).
Read-outs that look alike come from different tables or passages of the source.

How the values were obtained:
[1] = tested on: SARS-CoV-2; experiment: microbe, parasite or virus in culture; assay type: cell-based; conditions: Severe acute respiratory syndrome coronavirus 2, VeroE6/TMPRSS2, 72 h, 50% SARS-CoV-2 infected cell death inhibitory concentration, VeroE6/TMPRSS2 cells, 3 days culture
[2] = biological target: SARS-CoV-2 3CL protease (Severe acute respiratory syndrome coronavirus 2, UniProt P0DTD1); experiment: biochemical; conditions: 50% SARS-CoV-2 3CL protease inhibitory concentration, read-out: IC50

Compound | EC50 ([1]; CellTiter-Glo 2.0) [µM] | IC50 ([2]; RapidFire MS) [µM] | EC50 ([1]; class symbols) [µM] | IC50 ([2]; given as class symbols) [µM]
COc1ccc(Nc2nc(=O)n(-c3cncc4ccccc34)c(=O)n2Cc2ccc(F)c(C#N)c2)cc1 [Compound I-0377] | 0.0729 | 0.008 |  | 
Cn1cc2cc(Nc3nc(=O)n(-c4cncc5ccccc45)c(=O)n3Cc3cc(F)c(F)c(F)c3)c(Cl)cc2n1 [Compound I-0378] |  |  | < 1 | < 0.1
Cn1cc2cc(Nc3nc(=O)n(-c4cncc5ccccc45)c(=O)n3Cc3ccc(F)c(C#N)c3)c(Cl)cc2n1 [Compound I-0379] |  |  | < 1 | < 0.1
Cn1cc2cc(Nc3nc(=O)n(-c4cncc5ccccc45)c(=O)n3Cc3cc(F)c(F)c(F)c3)ccc2n1 [Compound I-0380] |  |  | < 1 | < 0.1
O=c1[nH]cccc1Cn1c(=O)nc(Nc2cc3cn(CCOC(F)(F)F)nc3cc2Cl)n(Cc2cc(F)c(F)c(F)c2)c1=O [Compound I-0381] |  |  | 1 to 10 | < 0.1
O=c1[nH]cccc1Cn1c(=O)nc(Nc2cc3cn(C4COC4)nc3cc2Cl)n(Cc2cc(F)c(F)c(F)c2)c1=O [Compound I-0382] |  |  | 1 to 10 | < 0.1
Cc1cncc(-n2c(=O)nc(Nc3cc4cn(C)nc4cc3Cl)n(Cc3ccc(F)c(C#N)c3)c2=O)c1 [Compound I-0383] | 0.096 | 0.0034 |  | 
Cc1cncc(-n2c(=O)nc(Nc3cc4cn(C)nc4cc3F)n(Cc3ccc(F)c(C#N)c3)c2=O)c1 [Compound I-0384] |  |  | < 1 | < 0.1
Cc1cncc(-n2c(=O)nc(Nc3cc4cn(C)nc4cc3C)n(Cc3ccc(F)c(C#N)c3)c2=O)c1 [Compound I-0385] |  |  | < 1 | < 0.1
Cc1nc2cc(Cl)c(Nc3nc(=O)n(Cc4cc5ccsc5[nH]c4=O)c(=O)n3Cc3cc(F)c(F)c(F)c3)cc2n1C [Compound I-0390] | 3.16 | 0.004 | 1 to 10 | < 0.1
O=c1[nH]cc(Cl)cc1Cn1c(=O)nc(Nc2cc3c(cc2Cl)OCC3)n(Cc2cc(F)c(F)c(F)c2)c1=O [Compound I-0391] | 0.46 | 0.0076 |  | 
O=c1[nH]cccc1Cn1c(=O)nc(Nc2ccc(OC3CC3)cc2Cl)n(Cc2cc(F)c(F)c(F)c2)c1=O [Compound I-0392] |  |  | 1 to 10 | < 0.1
O=c1[nH]cccc1Cn1c(=O)nc(Nc2cc3cn(CCCOC(F)(F)F)nc3cc2Cl)n(Cc2cc(F)c(F)c(F)c2)c1=O [Compound I-0400] |  |  | 1 to 10 | < 0.1
O=c1nc(Nc2cc3cn(CCN4CCOCC4)nc3cc2Cl)n(Cc2cc(F)c(F)c(F)c2)c(=O)n1-c1cncc2ccccc12 [Compound I-0401] |  |  | 1 to 10 | < 0.1
C[C@H](O)Cn1cc2cc(Nc3nc(=O)n(Cc4cc(Cl)c[nH]c4=O)c(=O)n3Cc3cc(F)c(F)c(F)c3)c(Cl)cc2n1 [Compound I-0402] |  |  | 1 to 10 | < 0.1
COc1ccc(Nc2nc(=O)n(Cc3c[nH]c(=O)[nH]c3=O)c(=O)n2Cc2cc(F)c(F)c(F)c2)c(Cl)c1 [Compound I-0404] |  |  | 1 to 10 | < 0.1
O=c1[nH]cc(Cn2c(=O)nc(Nc3cc4c(cc3Cl)OCC4)n(Cc3cc(F)c(F)c(F)c3)c2=O)c(=O)[nH]1 [Compound I-0406] |  |  | 1 to 10 | < 0.1
N#Cc1cc(Cn2c(Nc3cc4c(cc3Cl)OCC4)nc(=O)n(Cc3cc(Cl)c[nH]c3=O)c2=O)ccc1F [Compound I-0408] |  |  | 1 to 10 | < 0.1
Cn1cnc(Cn2c(=O)nc(Nc3cc4cn(C)nc4cc3Cl)n(Cc3cc(F)c(F)c(F)c3)c2=O)n1 [Compound I-0421] | 0.45 | 0.01 | < 1 | < 0.1
Cc1nc2cc(Cl)c(Nc3nc(=O)n(Cc4ncn(C)n4)c(=O)n3Cc3cc(F)c(F)c(F)c3)cc2n1C [Compound I-0422] |  |  | 1 to 10 | < 0.1
O=c1[nH]cccc1Cn1c(=O)nc(Nc2cc3cn(CC4(O)CCC4)nc3cc2Cl)n(Cc2cc(F)c(F)c(F)c2)c1=O [Compound I-0423] |  |  | 1 to 10 | < 0.1
C[C@H](O)Cn1cc2cc(Nc3nc(=O)n(Cc4ccc[nH]c4=O)c(=O)n3Cc3cc(F)c(F)c(F)c3)c(Cl)cc2n1 [Compound I-0424] |  |  | 1 to 10 | < 0.1

Compound | EC50 ([1]; CellTiter-Glo 2.0) [µM] | IC50 ([2]; RapidFire MS) [µM] | EC50 ([1]; class symbols) [µM] | IC50 ([2]; given as class symbols) [µM]
C[C@@H](O)Cn1cc2cc(Nc3nc(=O)n(Cc4ccc[nH]c4=O)c(=O)n3Cc3cc(F)c(F)c(F)c3)c(Cl)cc2n1 [Compound I-0425] |  |  | 1 to 10 | < 0.1
Cn1cnc(Cn2c(=O)nc(Nc3cc4cn(C)nc4cc3Cl)n(Cc3cc(F)c(F)c(F)c3)c2=O)c1 [Compound I-0426] | 1.03 | 0.0063 |  | 
N#Cc1cc(Cn2c(Nc3cc4cn(C(F)F)nc4cc3Cl)nc(=O)n(-c3cncc4ccccc34)c2=O)ccc1F [Compound I-0428] |  |  | < 1 | < 0.1
Cn1cc2cc(Nc3nc(=O)n(-c4cncc5ccccc45)c(=O)n3Cc3ccc(F)c(C#N)c3)c(F)cc2n1 [Compound I-0429] |  |  | < 1 | < 0.1
Cc1cncc(-n2c(=O)nc(Nc3cc4cn(C(F)F)nc4cc3Cl)n(Cc3ccc(F)c(C#N)c3)c2=O)c1 [Compound I-0430] |  |  | < 1 | < 0.1
Cc1cc2nn(C)cc2cc1Nc1nc(=O)n(-c2cncc3ccccc23)c(=O)n1Cc1ccc(F)c(C#N)c1 [Compound I-0431] |  |  | < 1 | < 0.1
Cn1cnc(Cn2c(=O)nc(Nc3cc4cn(CCO)nc4cc3Cl)n(Cc3cc(F)c(F)c(F)c3)c2=O)n1 [Compound I-0432] |  |  | 1 to 10 | < 0.1
Cn1cnc(Cn2c(=O)nc(Nc3cc4cn(CC(F)F)nc4cc3Cl)n(Cc3cc(F)c(F)c(F)c3)c2=O)n1 [Compound I-0433] | 0.72 | 0.01 | < 1 | < 0.1
Cn1cnc(Cn2c(=O)nc(Nc3cc4cn(C(F)F)nc4cc3Cl)n(Cc3cc(F)c(F)c(F)c3)c2=O)n1 [Compound I-0434] |  |  | 1 to 10 | < 0.1
N#Cc1cc(Cn2c(Nc3cc4cn(CCO)nc4cc3Cl)nc(=O)n(-c3cccc4ccccc34)c2=O)ccc1F [Compound I-0435] |  |  | 1 to 10 | < 0.1
Cn1cc2cc(Nc3nc(=O)n(Cc4ccc[nH]c4=O)c(=O)n3Cc3cc(F)c(F)c(F)c3)c(Cl)cc2n1 [Compound I-0436] |  |  | < 1 | < 0.1
COc1cc(Cl)c(Nc2nc(=O)n(Cc3ccc[nH]c3=O)c(=O)n2Cc2cc(F)c(F)c(F)c2)c(Cl)c1 [Compound I-0437] |  |  | 1 to 10 | < 0.1
Cc1nc2cc(Cl)c(Nc3nc(=O)n(Cc4ccc[nH]c4=O)c(=O)n3Cc3cc(F)c(F)c(F)c3)cc2n1CC(F)F [Compound I-0444] | 3.94 | 0.0051 | 1 to 10 | < 0.1
CC(C)(O)Cn1cc2cc(Nc3nc(=O)n(Cc4ccc[nH]c4=O)c(=O)n3Cc3cc(F)c(F)c(F)c3)c(Cl)cc2n1 [Compound I-0447] |  |  | 1 to 10 | < 0.1
O=c1[nH]cccc1Cn1c(=O)nc(Nc2cc3cn(CCCO)nc3cc2Cl)n(Cc2cc(F)c(F)c(F)c2)c1=O [Compound I-0450] |  |  | 1 to 10 | < 0.1
O=C1CC=CC=C1Cn1c(=O)nc(Nc2cc3cn(C4CCOCC4)nc3cc2Cl)n(Cc2cc(F)c(F)c(F)c2)c1=O [Compound I-0451] |  |  | 1 to 10 | < 0.1
O=c1[nH]cc(Cl)cc1Cn1c(=O)nc(Nc2cc3cn(CCCO)nc3cc2Cl)n(Cc2cc(F)c(F)c(F)c2)c1=O [Compound I-0454] |  |  | 1 to 10 | < 0.1
CC(C)(O)Cn1cc2cc(Nc3nc(=O)n(Cc4cc(Cl)c[nH]c4=O)c(=O)n3Cc3cc(F)c(F)c(F)c3)c(Cl)cc2n1 [Compound I-0455] |  |  | 1 to 10 | < 0.1
Cc1nc2cc(Cl)c(Nc3nc(=O)n(-c4cccc5ccccc45)c(=O)n3Cc3cc(F)c(F)c(F)c3)cc2n1C [Compound I-0456] |  |  | 1 to 10 | < 0.1
O=c1[nH]cccc1Cn1c(=O)nc(Nc2cc3c(cc2Cl)nc2n3CCOC2)n(Cc2cc(F)c(F)c(F)c2)c1=O [Compound I-0457] | 5.3 | 0.0072 |  | 
Cc1nc2cc(Cl)c(Nc3nc(=O)n(Cc4ccc[nH]c4=O)c(=O)n3Cc3cc(F)c(F)c(F)c3)cc2o1 [Compound I-0459] |  |  | 1 to 10 | < 0.1
CNc1nc2ccc(Nc3nc(=O)n(Cc4ccc[nH]c4=O)c(=O)n3Cc3cc(F)c(F)c(F)c3)cc2s1 [Compound I-0460] |  |  | 1 to 10 | < 0.1
